Results from paper PMC9851200, “Multiparameter phenotypic screening for endogenous TFEB and TFE3 translocation identifies novel chemical series modulating lysosome function” (Autophagy, 2022).
Like-named read-outs stand apart in the source and are kept apart here.

What was measured:
[1] = tested on: endogenous TFE3; test: TFE3 nuclear translocation, immunocytochemistry high-content imaging; format: cell-based
[2] = tested on: SH-SY5Y cells; test: AK (adenylate kinase) release ToxiLight cytotoxicity assay; also: reference of the scale not given here
[3] = tested on: SH-SY5Y cells; test: Nuclear count from microscopy images (cellular growth and toxicity); also: reference of the scale not given here
[4] = tested on: endogenous TFEB; test: TFEB nuclear translocation, immunocytochemistry high-content imaging; format: cell-based
[5] = tested on: SH-SY5Y cells; also: reference of the scale not given here
[6] = PKIS2 primary screening, DQ Red BSA intensity
[7] = PKIS2 primary screening, DQ Red BSA spot count
[8] = PKIS2 primary screen, DQ Red BSA intensity
[9] = PKIS2 primary screen, DQ Red BSA spot count

Structure (SMILES)	TFE3 % ([1]; PKIS2 primary screening) [%]	AK ([2]; PKIS2 primary screening)	Nuclear Count ([3]; PKIS2 primary screening)	TFEB % ([4]; PKIS2 primary screening) [%]	DQ Intensity [5, 6]	DQ Spot [5, 7]	DQ Intensity ([5]; PKIS2 primary screening)	DQ Spot ([5]; PKIS2 primary screening)	TFE3 % ([1]; PKIS2 primary screen) [%]	AK ([2]; PKIS2 primary screen)	Nuclear Count ([3]; PKIS2 primary screen)	TFEB % ([4]; PKIS2 primary screen) [%]	DQ Intensity [5, 8]	DQ Spot [5, 9]
Cl.Oc1cc(-c2nc(-c3ccccc3)[nH]c2-c2ccncc2)ccc1Cl [UNC10225128B]	11.76	91.39	80.05	6.45	96.34	92.51	–	–	–	–	–	–	–	–
O=c1cc(N2CCOCC2)nc2n(Cc3cccc(Cl)c3)ccn12 [UNC10225131A]	11.28	96.90	104.22	5.81	–	–	103.05	113.71	–	–	–	–	–	–
CCOC(=O)N1CCC(n2cnc(-c3ccc(F)cc3)c2-c2ccnc(N)n2)CC1 [UNC10225132A]	8.29	115.58	129.88	10.30	–	–	90.15	96.37	–	–	–	–	–	–
O=c1cc(N2CCOCC2)nc2n(Cc3cccc(Cl)c3Cl)c3ccccc3n12 [UNC10225136A]	23.04	86.64	90.29	3.50	–	–	100.81	121.13	–	–	–	–	–	–
FC(F)(F)c1ccc(-c2nn3ncccc3c2-c2ccnc(Nc3cccc(C(F)(F)F)c3)n2)cc1 [UNC10225138A]	11.01	86.01	92.79	4.73	–	–	102.80	109.82	–	–	–	–	–	–
CC(C)c1nc(-c2cccc(NS(=O)(=O)c3c(F)cccc3F)c2)c(-c2ccnc(Nc3ccc(N4CCOCC4)nc3)n2)s1.Cl [UNC10225142A]	11.69	81.90	103.74	18.86	–	–	106.42	109.80	–	–	–	–	–	–
Nc1nc(N)c2nc(-c3ccccc3)[nH]c2n1 [UNC10225149A]	9.26	120.42	98.36	6.49	–	–	89.50	98.14	–	–	–	–	–	–
Cc1ccc(NC(=O)c2ccc(Cl)c(Cl)c2)cc1-c1ccc(C(=O)Nc2ccncc2)cc1 [UNC10225151A]	10.75	125.83	117.17	6.14	–	–	92.58	82.55	–	–	–	–	–	–
COc1cc2ncn(-c3cc(OCc4sccc4Cl)c(C(N)=O)s3)c2cc1OC [UNC10225153A]	30.18	134.16	49.58	9.72	–	–	186.81	134.42	–	–	–	–	–	–
CCn1c(-c2ccccn2)nc2cnccc21 [UNC10225156A]	11.71	96.85	94.90	4.22	–	–	124.07	112.23	–	–	–	–	–	–
O=c1[nH]cc(-c2ccc(N3CCOCC3)cc2)c2sc(-c3cn[nH]c3)cc12 [UNC10225158A]	–	–	–	–	–	–	–	–	10.30	90.80	78.86	7.60	68.86	89.34
Fc1ccc(-c2nc3n(c2-c2ccncc2)CCS3)cc1 [UNC10225163A]	5.95	64.81	90.62	3.29	100.39	119.65	–	–	–	–	–	–	–	–
Cn1cc(-c2ccc3c(c2)CCN3C(=O)Cc2cccc(C(F)(F)F)c2)c2c(N)ncnc21 [UNC10225165A]	14.20	93.68	103.31	6.03	–	–	124.78	91.55	–	–	–	–	–	–
O=c1[nH]cc(-c2ccc(O)cc2)c2sc(-c3ccncc3)cc12 [UNC10225166A]	–	–	–	–	–	–	–	–	6.08	95.26	145.07	3.69	80.95	75.27
c1ccc(-c2cc(-c3c[nH]nc3-c3ccccn3)ccn2)cc1 [UNC10225169A]	6.57	72.24	139.75	2.50	83.52	97.79	–	–	–	–	–	–	–	–
Cn1cc(-c2ccc3c(c2)CCN3C(=O)Cc2ccccc2Cl)c2c(N)ncnc21 [UNC10225172A]	8.56	106.54	63.66	8.22	–	–	88.08	66.39	–	–	–	–	–	–
Nc1nccc(-c2c(-c3ccc(F)cc3)ncn2C2CCN(CC(F)(F)F)CC2)n1 [UNC10225173A]	11.80	117.50	107.53	11.13	–	–	90.34	99.50	–	–	–	–	–	–

Structure (SMILES)	TFE3 % ([1]; PKIS2 primary screening) [%]	AK ([2]; PKIS2 primary screening)	Nuclear Count ([3]; PKIS2 primary screening)	TFEB % ([4]; PKIS2 primary screening) [%]	DQ Intensity [5, 6]	DQ Spot [5, 7]	DQ Intensity ([5]; PKIS2 primary screening)	DQ Spot ([5]; PKIS2 primary screening)	TFE3 % ([1]; PKIS2 primary screen) [%]	AK ([2]; PKIS2 primary screen)	Nuclear Count ([3]; PKIS2 primary screen)	TFEB % ([4]; PKIS2 primary screen) [%]	DQ Intensity [5, 8]	DQ Spot [5, 9]
O=C(Nc1cccc(-c2nn3ncccc3c2-c2ccnc(Nc3cccc(C(F)(F)F)c3)n2)c1)c1c(F)cccc1F [UNC10225174A]	11.86	107.72	93.11	2.89	–	–	102.81	113.18	–	–	–	–	–	–
Cc1nn2c(=O)cc(N3CCOCC3)nc2n1Cc1cccc(Cl)c1Cl [UNC10225178A]	28.29	116.91	93.42	7.97	–	–	66.02	117.74	–	–	–	–	–	–
FC(F)(F)c1ccccc1-c1cc(-c2c[nH]nc2-c2ccccn2)ccn1 [UNC10225184A]	4.50	124.66	131.35	5.60	88.51	92.76	–	–	–	–	–	–	–	–
CN1CCN(CCCNc2nccc(-c3c(-c4ccc(F)cc4)nn4cc(C(N)=O)ccc34)n2)CC1 [UNC10225188A]	19.47	105.02	94.19	6.08	–	–	87.92	111.81	–	–	–	–	–	–
Cc1nn2c(=O)cc(N3CCO[C@H](C)C3)nc2n1Cc1cccc(Cl)c1Cl [UNC10225190A]	6.51	79.35	111.47	6.05	–	–	96.99	93.26	–	–	–	–	–	–
FC(F)(F)c1cc(Br)cc(Nc2nccc(-c3cnn4ncccc34)n2)c1 [UNC10225191A]	14.10	83.14	72.92	6.52	–	–	110.85	116.61	–	–	–	–	–	–
FC(F)(F)c1cc(Nc2nccc(-c3c(-c4ccc(Cl)cc4)nn4ncccc34)n2)ccc1Cl [UNC10225192A]	11.31	128.18	86.86	6.87	–	–	96.76	105.34	–	–	–	–	–	–
CCOc1nccc(-c2c(-c3ccc(F)cc3)ncn2C2CCNCC2)n1 [UNC10225194A]	13.41	122.01	127.90	5.88	–	–	81.72	85.28	–	–	–	–	–	–
Cc1c(Cn2c3ccccc3n3c(=O)cc(N4CCOCC4)nc23)cccc1C(F)(F)F [UNC10225195A]	10.62	76.50	108.51	7.03	–	–	86.55	100.26	–	–	–	–	–	–
NCC(NC(=O)c1cc(-c2cn[nH]c2)c(-c2ccnc3[nH]ccc23)s1)c1ccccc1.O=C(O)C(F)(F)F.O=C(O)C(F)(F)F (stereo not drawn) [UNC10225196A]	18.18	105.21	81.98	5.85	69.88	101.21	–	–	–	–	–	–	–	–
COc1cccc(NC(=O)Nc2ccc(C)c(-c3ccc(C(=O)Nc4ccncc4)cc3)c2)c1 [UNC10225200A]	12.37	112.40	79.81	7.95	–	–	99.65	116.14	–	–	–	–	–	–
Nc1nc(-c2ccccn2)c(-c2ccnc3ccccc23)s1 [UNC10225201A]	10.28	81.66	144.30	4.25	97.54	92.32	–	–	–	–	–	–	–	–
Nc1ncnc2c1ncn2-c1ccc(Cl)cc1 [UNC10225203A]	14.23	145.27	80.96	5.10	–	–	65.28	88.83	–	–	–	–	–	–
CCn1c(-c2ccncc2)nc2cnccc21 [UNC10225204A]	12.32	74.70	104.87	11.18	–	–	98.92	103.23	–	–	–	–	–	–
CCc1nc(-c2cccc(N(C)S(=O)(=O)c3ccccc3)c2)c(-c2ccnc(Nc3ccc(N4CCN(C(C)=O)CC4)nc3)n2)s1 [UNC10225205A]	16.25	111.97	89.51	7.99	–	–	90.69	101.49	–	–	–	–	–	–
CCn1c(-c2nonc2N)nc2cncc(CNC3CCNCC3)c21.Cl [UNC10225211A]	12.65	88.65	84.35	4.17	–	–	95.76	101.16	–	–	–	–	–	–
CN1C(=O)C(Nc2cc(Cl)c(O)c(Cl)c2)=C(c2ccc(Cl)cc2)C1=O [UNC10225212A]	7.81	103.32	107.72	3.71	96.22	97.02	–	–	–	–	–	–	–	–
